Here are results for 14 compounds from PubChem BioAssay (NCI).

Some test systems named below: NCI/ADR-RES ovarian; OVCAR-4 ovarian; A498 renal; SK-OV-3 ovarian; A549 NSCLC; UACC-257 melanoma; HOP-62 NSCLC; DU-145 prostate; UACC-62 melanoma; SR leukemia.
Holding throughout (assay): inhibition of tumour cell growth, NCI panel, 48 h

The structures appear in SMILES notation.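 Grown in 96-well plates, cells were treated for 48 hours with each compound at five concentrations. Insufficient inhibition: endpoint recorded as highest concentration tested. Here, GI50 denotes the concentration required for 50% inhibition of growth. TGI: concentration producing complete growth inhibition.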 A value given as a limit tells only on which side of the number the result lay.

For `CN(C)c1ccc(N=C2C=CC(=[N+](C)C)C=C2)cc1`, the GI50 with NCI/ADR-RES ovarian is 19.1 µM; in the assay with OVCAR-4 ovarian, 7.52 µM; with A498 renal, 2700 nM; in the assay with SK-OV-3 ovarian it was 15.5 µM; with A549 NSCLC it was 5.21 µM; with UACC-257 melanoma, 7.12 µM. In addition, the GI50 was 4.21 µM with HOP-62 NSCLC, 22.3 µM with DU-145 prostate and 5.25 µM in the assay on UACC-62 melanoma. The TGI in the assay with NCI/ADR-RES ovarian was over 100 µM; in the assay with OVCAR-4 ovarian it was 21.8 µM; in the assay on A498 renal, over 100 µM; in the assay on SK-OV-3 ovarian it was 78.6 µM; in the assay with A549 NSCLC, over 100 µM; in the assay with UACC-257 melanoma, 24.8 µM. Also, the TGI was over 100 µM in the assay on HOP-62 NSCLC, over 100 µM in the assay with DU-145 prostate and 34.6 µM in the assay with UACC-62 melanoma.
On to `O=C(O)c1cc(/C=C/c2cc(O)ccc2O)ccc1O`, for which the TGI in the assay with SR leukemia, in the assay on NCI/ADR-RES ovarian, with OVCAR-4 ovarian, with A549 NSCLC, in the assay with UACC-257 melanoma and in the assay on DU-145 prostate was over 10 µM each time. In addition, the TGI in the assay with UACC-62 melanoma is over 10 µM.
In the case of `CCOC(=O)c1c(C)n2c(=O)cc(C)c3c(O)c(O)cc1c32`, the GI50 with SR leukemia was 721 nM; with NCI/ADR-RES ovarian it was 28.3 µM; in the assay on OVCAR-4 ovarian, 4.53 µM; in the assay with A498 renal it was 27400 nM; in the assay on A549 NSCLC, 5.56 µM; with UACC-257 melanoma it was 2.7 µM. In addition, the GI50 with HOP-62 NSCLC was 38.4 µM; in the assay on DU-145 prostate, 29.1 µM; in the assay with UACC-62 melanoma it was 8.9 µM. Also, the TGI in the assay on SR leukemia was 17 µM; in the assay with NCI/ADR-RES ovarian it was 89.4 µM; in the assay with OVCAR-4 ovarian, over 100 µM; in the assay on A498 renal, over 100 µM; with A549 NSCLC, 49.1 µM; in the assay on UACC-257 melanoma, 7.65 µM. The results for the TGI with HOP-62 NSCLC, in the assay on DU-145 prostate and in the assay on UACC-62 melanoma were over 100 µM, over 100 µM and 29.3 µM, respectively.
In the case of `CNC(=O)OCc1c2ccncc2c(C)c2c1[nH]c1ccccc12`, the TGI in the assay on NCI/ADR-RES ovarian was 2.3 µM; with OVCAR-4 ovarian it was 1.38 µM; in the assay on A498 renal it was 0.673 µM; with SK-OV-3 ovarian, 1.78 µM; with A549 NSCLC, 2.58 µM; in the assay on UACC-257 melanoma, 2.05 µM. The TGI stood at 5 µM in the assay on HOP-62 NSCLC, 6.18 µM in the assay on DU-145 prostate and 0.869 µM in the assay with UACC-62 melanoma.
Take `C=C(C)[C@@H]1CC[C@]2(C(=O)O)CC[C@]3(C)[C@H](CC[C@@H]4[C@@]5(C)C[C@@H](CC#Cc6ccc(C(F)(F)F)cc6)[C@H](O)C(C)(C)[C@@H]5CC[C@]43C)[C@@H]12`: the GI50 in the assay on SR leukemia was 3230 nM; with NCI/ADR-RES ovarian it was 47.3 µM; in the assay on A498 renal, 3160 nM; with DU-145 prostate, 3.52 µM. Also, the TGI with SR leukemia, in the assay on NCI/ADR-RES ovarian, in the assay on A498 renal and in the assay on DU-145 prostate was over 100 µM each time.
As to `COc1ccc(C(=O)c2cc(OC)c(OC)c(OC)c2)cc1/C=C/C(=O)c1ccc(OC)c(OC)c1`, the GI50 in the assay on SR leukemia was 290 nM; in the assay with NCI/ADR-RES ovarian, 0.466 µM; with OVCAR-4 ovarian, 1.95 µM; with SK-OV-3 ovarian it was 5.76 µM; in the assay with UACC-257 melanoma, 3.19 µM; with HOP-62 NSCLC, 34.1 µM. In addition, in the assay on DU-145 prostate, the GI50 was 2.21 µM. In addition, the TGI in the assay with SR leukemia was 10.2 µM; with NCI/ADR-RES ovarian, over 100 µM; in the assay with OVCAR-4 ovarian, over 100 µM; in the assay on SK-OV-3 ovarian it was over 100 µM; with UACC-257 melanoma it was over 100 µM; in the assay on HOP-62 NSCLC it was over 100 µM. Besides, the TGI with DU-145 prostate is over 100 µM.
`O=C(CN(/C=C/C(=O)C(F)(F)F)c1ccc(Cl)cc1)c1ccccc1`: the GI50 in the assay with SR leukemia is 14800 nM; with NCI/ADR-RES ovarian, 14.1 µM; in the assay with A498 renal, 22000 nM; with SK-OV-3 ovarian, 51.2 µM; in the assay on A549 NSCLC, 12 µM; in the assay on UACC-257 melanoma, 14.5 µM. The GI50 with HOP-62 NSCLC was 11.4 µM; in the assay on DU-145 prostate it was 18 µM; with UACC-62 melanoma, 11.7 µM. The TGI with SR leukemia was 57 µM; in the assay on NCI/ADR-RES ovarian, 30.3 µM; in the assay with A498 renal it was 43.1 µM; with SK-OV-3 ovarian it was over 100 µM; in the assay with A549 NSCLC it was over 100 µM; with UACC-257 melanoma, 34.9 µM. Moreover, the TGI is 24.5 µM in the assay on HOP-62 NSCLC, 43.4 µM in the assay with DU-145 prostate and 26.4 µM with UACC-62 melanoma.
For the compound `Cc1ccc(S(=O)(=O)N2CCSCCN(S(=O)(=O)c3ccc(C)cc3)CCN(S(=O)(=O)c3ccc(C)cc3)CC2)cc1`, the TGI with NCI/ADR-RES ovarian was over 100 µM; in the assay with OVCAR-4 ovarian it was over 100 µM; in the assay on A498 renal, over 100 µM; in the assay with SK-OV-3 ovarian, 86.7 µM; in the assay with A549 NSCLC, over 100 µM; in the assay with HOP-62 NSCLC, 69 µM. In addition, the TGI in the assay on DU-145 prostate and with UACC-62 melanoma was over 100 µM in each case.
In the case of `CC1COc2c(N3CCN(C)CC3)c(F)cc3c(=O)c(C(=O)O)cn1c23` (stereo unspecified), the GI50 with NCI/ADR-RES ovarian is over 100 µM; in the assay on OVCAR-4 ovarian, over 100 µM; in the assay on A498 renal it was over 100000 nM; in the assay on SK-OV-3 ovarian, over 100 µM; in the assay on A549 NSCLC, over 100 µM; with UACC-257 melanoma, over 100 µM. Besides, the GI50 with HOP-62 NSCLC, in the assay on DU-145 prostate and with UACC-62 melanoma was over 100 µM in each case. Moreover, the TGI in the assay with NCI/ADR-RES ovarian, in the assay on OVCAR-4 ovarian, in the assay with A498 renal, in the assay with SK-OV-3 ovarian, in the assay on A549 NSCLC and in the assay with UACC-257 melanoma was over 100 µM each time. The TGI in the assay on HOP-62 NSCLC, with DU-145 prostate and in the assay with UACC-62 melanoma was over 100 µM in each case.
As for `O=[N+]([O-])c1ccccc1N/N=C\c1c[nH]c2ccccc12`, the GI50 is 3400 nM in the assay on SR leukemia; 8.85 µM with NCI/ADR-RES ovarian; 17.8 µM with OVCAR-4 ovarian; 22.4 µM with SK-OV-3 ovarian; 20.2 µM with A549 NSCLC; 26.4 µM with UACC-257 melanoma. Moreover, the GI50 in the assay on HOP-62 NSCLC is 13.8 µM; in the assay on DU-145 prostate, 27.6 µM; with UACC-62 melanoma, 17.1 µM. Also, the TGI with SR leukemia is over 100 µM; with NCI/ADR-RES ovarian, over 100 µM; in the assay on OVCAR-4 ovarian, over 100 µM; in the assay on SK-OV-3 ovarian, 98 µM; in the assay on A549 NSCLC, over 100 µM; with UACC-257 melanoma, over 100 µM. The TGI is 31.1 µM in the assay on HOP-62 NSCLC, over 100 µM in the assay with DU-145 prostate and over 100 µM with UACC-62 melanoma.
As to `Clc1ccc2c(c1)N(c1ncnc3ccc(-c4cnc5[nH]ccc5c4)cc13)CC2`, the GI50 in the assay with SR leukemia is 595 nM; in the assay on NCI/ADR-RES ovarian, 1.99 µM; with OVCAR-4 ovarian it was 1.12 µM; in the assay on SK-OV-3 ovarian it was 4.03 µM; in the assay on A549 NSCLC, 2.61 µM; in the assay with UACC-257 melanoma, 14.8 µM. Moreover, the GI50 is 2.45 µM in the assay with HOP-62 NSCLC, 2.22 µM in the assay on DU-145 prostate and 0.982 µM in the assay with UACC-62 melanoma. The TGI in the assay with SR leukemia is over 100 µM; with NCI/ADR-RES ovarian it was 69 µM; in the assay on OVCAR-4 ovarian, 16.9 µM; in the assay on SK-OV-3 ovarian, 61.4 µM; in the assay with A549 NSCLC, 17.7 µM; in the assay with UACC-257 melanoma, 63.2 µM. Further, the figures for the TGI in the assay with HOP-62 NSCLC, in the assay on DU-145 prostate and with UACC-62 melanoma were 17.4 µM, 19.4 µM and 21.1 µM, respectively.
`COc1ccc2c(CN3CCC(C(=O)O)CC3)cc3cc4c(cc3c2c1)OCO4`: the GI50 in the assay with SR leukemia is 886 nM; in the assay with NCI/ADR-RES ovarian, 2.35 µM; in the assay with OVCAR-4 ovarian, 4.15 µM; in the assay with A498 renal, 1790 nM; in the assay on A549 NSCLC it was 1.77 µM; in the assay with UACC-257 melanoma, 1.85 µM. The GI50 is 2.71 µM in the assay on HOP-62 NSCLC, 3.87 µM in the assay with DU-145 prostate and 1.59 µM with UACC-62 melanoma. The TGI in the assay with SR leukemia is 5.78 µM; in the assay with NCI/ADR-RES ovarian it was 6.99 µM; in the assay with OVCAR-4 ovarian it was over 100 µM; in the assay on A498 renal, 3.33 µM; in the assay on A549 NSCLC, 4.34 µM; in the assay on UACC-257 melanoma, 3.54 µM. For the same compound, the values for the TGI with HOP-62 NSCLC, in the assay with DU-145 prostate and with UACC-62 melanoma were 11.4 µM, over 100 µM and 3.03 µM, respectively.
With `Cl.Fc1c[c-]c(-c2ccccn2)c(F)c1.[Pt].c1ccc(P(c2ccccc2)C([PH+](c2ccccc2)c2ccccc2)[PH+](c2ccccc2)c2ccccc2)cc1`, the GI50 with SR leukemia is 2610 nM; in the assay on NCI/ADR-RES ovarian it was 34.9 µM; in the assay with A498 renal, 2590 nM; in the assay on A549 NSCLC, 2.84 µM; in the assay with UACC-257 melanoma, 2.75 µM; with HOP-62 NSCLC it was 2.63 µM. The figures for the GI50 in the assay on DU-145 prostate and in the assay with UACC-62 melanoma were 3.57 µM and 3.03 µM, respectively. The TGI with SR leukemia is over 100 µM; with NCI/ADR-RES ovarian, over 100 µM; with A498 renal, 7.47 µM; in the assay on A549 NSCLC it was 20.7 µM; in the assay on UACC-257 melanoma, 8.09 µM; in the assay on HOP-62 NSCLC, 9.78 µM. Moreover, the TGI with DU-145 prostate was 20.1 µM; in the assay on UACC-62 melanoma it was 18 µM.
On to `CCN1C(=O)N(CC)C2Nn3c(s/c(=C\c4ccccc4Br)c3=O)=NC21` (stereo unspecified), for which the GI50 with SR leukemia is 573 nM; with NCI/ADR-RES ovarian it was 1.74 µM; with OVCAR-4 ovarian, 2.29 µM; in the assay with A498 renal, 886 nM; in the assay on SK-OV-3 ovarian, 2.15 µM; in the assay on A549 NSCLC, 1.23 µM. Moreover, the GI50 in the assay on UACC-257 melanoma is 12.9 µM; in the assay with HOP-62 NSCLC, 2.81 µM; with UACC-62 melanoma, 2.18 µM. Further, the TGI was 8.3 µM in the assay with SR leukemia; 43.7 µM in the assay with NCI/ADR-RES ovarian; over 100 µM in the assay with OVCAR-4 ovarian; 4.08 µM with A498 renal; 7.7 µM with SK-OV-3 ovarian; over 100 µM in the assay on A549 NSCLC. In addition, the TGI is over 100 µM in the assay on UACC-257 melanoma, over 100 µM with HOP-62 NSCLC and 31.1 µM in the assay on UACC-62 melanoma.
